Results: ChEMBL document CHEMBL3045990, “Inhibition of Cathepsin D protease activity by Punica granatum fruit peel extracts, isolates, and semisynthetic analogs” (Med Chem Res, 2013)
Converted amounts (≈) assume the structure as drawn. The source made the active and inactive calls. The rule behind the calls is not given here.

Experiments:
Cathepsin D [1] = target: T1, Cathepsin D (Homo sapiens, UniProt P07339); assay: Inhibition of cathepsin D (unknown origin) using hemoglobin as substrate at 20 ug/mL after 30 min by spectrophotometric analysis
Cathepsin D [2] = target: T1, Cathepsin D; assay: Inhibition of cathepsin D (unknown origin) using hemoglobin as substrate after 30 min by spectrophotometric analysis
MDA-MB-231 = assay: Cytotoxicity against Homo sapiens (human) MDA-MB-231 cells assessed as growth inhibition by MTT assay; type: functional, cell-based

T1 sequence (P07339 65-162 limits assumed): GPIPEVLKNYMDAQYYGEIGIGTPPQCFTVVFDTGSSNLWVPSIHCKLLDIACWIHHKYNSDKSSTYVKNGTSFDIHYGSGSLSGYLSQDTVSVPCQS
T1 sequence (P07339 169-412 limits assumed): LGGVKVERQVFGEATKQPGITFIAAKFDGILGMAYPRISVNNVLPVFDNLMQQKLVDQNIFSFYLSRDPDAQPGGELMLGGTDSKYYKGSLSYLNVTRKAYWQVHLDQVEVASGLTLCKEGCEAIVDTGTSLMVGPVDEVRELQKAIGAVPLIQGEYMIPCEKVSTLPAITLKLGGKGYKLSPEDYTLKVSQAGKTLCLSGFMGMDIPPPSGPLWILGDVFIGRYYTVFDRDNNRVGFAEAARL

In the case of CC(=O)O[C@H]1CC[C@]2(C)[C@H]3CC=C4[C@@H]5[C@@H](C)[C@H](C)CC[C@]5(C(=O)O)CC[C@@]4(C)[C@]3(C)CC[C@H]2C1(C)C, the inhibition (Cathepsin D [1]) is reported as “inactive”.
In the case of CC[C@H](CC[C@@H](C)[C@H]1CC[C@H]2[C@@H]3CC=C4C[C@@H](OC(C)=O)CC[C@]4(C)[C@H]3CC[C@]12C)C(C)C, the inhibition (Cathepsin D [1]) is reported as “inactive”.
Work on CC[C@H](CC[C@@H](C)[C@H]1CC[C@H]2[C@@H]3CC=C4CC(=O)CC[C@]4(C)[C@H]3CC[C@]12C)C(C)C [BETA-SITOSTENONE] yielded an IC50 (Cathepsin D [2]) of 9.4 µM.
For O=C(/C=C/C=C/c1ccc2c(c1)OCO2)N1CCCCC1 [PIPERINE], the IC50 (Cathepsin D [2]) was 42.3 µM and the IC50 (MDA-MB-231; Homo sapiens, MDA-MB-231) was 58.4 µg/mL (≈ 205 µM).
In the case of C[C@H]1[C@H](C)CC[C@]2(C(=O)O)CC[C@]3(C)C(=CC[C@@H]4[C@@]5(C)CC[C@H](O)C(C)(C)[C@@H]5CC[C@]43C)[C@H]12 [URSOLIC ACID], the IC50 (Cathepsin D [2]) is reported as 18.2 µM and the “growth inhibition (GI)” value (MDA-MB-231) is reported as <5%.
For CC[C@H](CC[C@@H](C)[C@H]1CC[C@H]2[C@@H]3CC=C4C[C@@H](O)CC[C@]4(C)[C@H]3CC[C@]12C)C(C)C, the inhibition (Cathepsin D [1]) was “inactive”.
In the case of C[C@H]1[C@H](C)CC[C@]2(C(=O)O)CC[C@]3(C)C(=CC[C@@H]4[C@@]5(C)CCC(=O)C(C)(C)[C@@H]5CC[C@]43C)[C@H]12 [URSONIC ACID], the IC50 (Cathepsin D [2]) is reported as 14.1 µM and the “growth inhibition (GI)” value (MDA-MB-231) is reported as <5%.
In the case of COC(=O)[C@]12CC[C@@H](C)[C@H](C)[C@H]1C1=CC[C@@H]3[C@@]4(C)CC[C@H](O)C(C)(C)[C@@H]4CC[C@@]3(C)[C@]1(C)CC2 [METHYL URSOLATE], the IC50 (Cathepsin D [2]) is reported as 9.45 µM and the “growth inhibition (GI)” value (MDA-MB-231) is reported as <5%.
With C[C@H]1[C@H](C)CC[C@]2(C(N)=O)CC[C@]3(C)C(=CC[C@@H]4[C@@]5(C)CC[C@H](O)C(C)(C)[C@@H]5CC[C@]43C)[C@H]12 the inhibition (Cathepsin D [1]) was “inactive”.
